Entries after “also recorded” stand apart in the source; their conditions may differ. Each block holds one molecule with its values, some of them ahead of it. Where a SMILES comes first, the peptide text is derived from it. Where no end group is shown, it is not given here. The star is where a group is joined. FITC = O=C1OC2(c3ccc(O)cc3Oc3cc(O)ccc32)c2ccc(NC(=S)*)cc21; Biotin = O=C1N[C@H]2[C@H](CS[C@H]2CCCCC(=O)*)N1; Cbz = O=C(OCc1ccccc1)*; CH2F = FC*
Tests used:
HEK293T cells = experiment: Bax-induced apoptosis in HEK293T cells (pcDNA3-Bax transfection, Hoechst staining); type: cell-based, human; conditions: added to the culture medium
Method: FIG. 1 illustrates that new peptides designed from Ku70 show anti-Bax activity. FIG. 1A: scheme of Ku70 full-length (Ku70 wt), Ku701-577 (Ku70Δ578–609), or Ku70578-609 (Ku70Δ1–577). FIG. 1C: HEK293T cells were transfected with 1.0 ug of pCMV-2B-control vector (Control) or pcDNA3-Bax (Bax) together with 2.0 ug of pCMV-2B-Ku70 wt (Ku70 wt), pCMV-2B-Ku701-577 (Ku701-577), or pCMV-2B-Ku70578-609 (Ku70578-609). All the cells were also co-transfected with 0.5 ug pEGFP for the marking of transfected cells. Apoptosis in the transfected cells was analyzed 24 hours following transfection with Hoechst dye staining of the nucleus as described in Methods. FIG. 1D: HEK293T cells were incubated with 200 uM peptide composed of Ku70578-587 or Ku70596-600 for 4 hours using BioPorter reagent, and then transfected with 1.0 ug of pCDNA3-control vector (Control) or pcDNA3-Bax (Bax). The number of apoptotic cells was determined as described in FIG. 1C. FIG. 1E: HEK293T cells (10^6 cells) were incubated with 200 uM IPMIK (negative control peptide) or VPMLK (V5) and PMLKE (P5) peptides at the indicated concentrations for 1 hour and then incubated cells were transfected with 1.0 ug of pcDNA3-Bax. Also, unincubated cells were transfected with 1.0 ug of pcDNA3-Bax in the presence or absence of 200 uM z-VAD-fmk. The number of apoptotic cells was determined as described in FIG. 1C. FIG. 1F: Summary of the anti-Bax activity and sequence of all peptides used.
HEK293T and HeLa cells were cultured in MEM supplemented with 10% fetal bovine serum (FBS) and Du145 cells and mouse embryonic fibroblasts (MEFs) were in DMEM with 10% FBS. Transfection of the plasmids was performed by SuperFect (Qiagen) according to the manufacturer's manual. Apoptosis was induced by pcDNA3-human Bax (Bax-encoding plasmid)-transfection, Staurosporin (STS)-treatment and UVC-irradiation. The amount of the plasmids, the concentration of STS, and the energy of UVC-irradiation are described in the figure legends. Apoptosis in the transfected cells was analyzed as follows: A plasmid encoding enhanced green fluorescent protein (EGFP) (0.5 ug to 10^6 cells) was transfected to all the groups to mark the transfected cells. After the treatment, cells were stained with Hoechst dye and cells with apoptotic nuclei were counted in GFP-expressing cells under the fluorescent microscope as described by Matsuyama, et al., J. Biol. Chem. 273:30995–31001, 1998. Each point in the figures showing percentages of apoptosis represents the mean +/−SE of three experiments. Caspase activities of cells were measured by detecting the cleavage of fluorogenic substrate of Caspase (DEVD-afc) as previously described.
BioPorter-based peptide delivery was performed 4 hours before apoptosis induction.

Caspase = Caspase activity (DEVD-afc cleavage); type: cell-based, human; conditions: HeLa cells, 200 nM STS, 200 uM, 24 hours
Method: (§1) FIG. 4A: One day following UVC-irradiation or STS-treatment in the absence (UV and STS) or presence of 200 uM negative control (NC) peptide (UV+NC and STS+NC) or V5 peptide (UV+V5 and STS+V5), subcellular fractionation of HeLa cells (10^6 cells) was performed. FoF1 ATP synthase subunit α (F1α) was used to mark the mitochondrial fraction. HM stands for “Heavy Membrane” fraction containing mitochondria. FIG. 4C: cytochrome c release from mitochondria is inhibited by BIP, but not z-VAD-fmk. HeLa cells (10^6 cells) were treated with 200 nM STS in the presence or absence of 200 uM negative control (NC) peptide, V5 peptide, or z-VAD-fmk for 24 hours. Cytochrome c released from mitochondria into cytosol was analyzed by subcellular fractionation followed by Western blot analysis of cytochrome c (cyt c) as well as mitochondrial FoF1-ATP-synthase subunit F1α (F1α) as described in Methods. […] Caspase activity was assessed as described in Methods. […]
HEK293T and HeLa cells were cultured in MEM supplemented with 10% fetal bovine serum (FBS) and Du145 cells and mouse embryonic fibroblasts (MEFs) were in DMEM with 10% FBS. […] Apoptosis in the transfected cells was analyzed as follows: A plasmid encoding enhanced green fluorescent protein (EGFP) (0.5 ug to 10^6 cells) was transfected to all the groups to mark the transfected cells. […]

endogenous Bax = biological target: T1, endogenous Bax (Mus musculus, UniProt Q07813); experiment: Scatchard analysis of the binding of FITC-V5 and Bax; conditions: Bax-immunodepleted cell lysates
T1 construct: endogenous in cells; host or cells: Ku70-deficient mouse embryonic fibroblasts, cytosol fraction
T1 sequence (Q07813 whole entry): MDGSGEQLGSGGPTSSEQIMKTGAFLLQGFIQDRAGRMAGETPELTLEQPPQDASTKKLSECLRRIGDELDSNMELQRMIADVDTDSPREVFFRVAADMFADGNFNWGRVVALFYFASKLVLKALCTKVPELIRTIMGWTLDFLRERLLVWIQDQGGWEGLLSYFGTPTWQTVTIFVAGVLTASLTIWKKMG
Method: as §1
Ku70-deficient MEFs (10^7 cells) were lysed in 200 ul of “detergent-free hypotonic buffer” (hypotonic (5 mM NaCl) phosphate buffered saline, pH 7.4) containing protease inhibitors (100 times dilution of Protease Inhibitors Cocktail; Sigma) according to the previously reported method (Hsu and Youle, supra, 1998). […] Kd was calculated by Scatchard plot. […]

Bax = experiment: Co-precipitation of biotin-labeled peptides and endogenous Bax using streptavidin beads; type: binding, human; conditions: HEK293T lysates, CHAPS buffer
Bak = biological target: T2, Bak (human, UniProt Q16611 2-211); experiment: streptavidin bead pull-down from HEK293T CHAPS lysates, Western blot of Bak
T2 sequence (looked up): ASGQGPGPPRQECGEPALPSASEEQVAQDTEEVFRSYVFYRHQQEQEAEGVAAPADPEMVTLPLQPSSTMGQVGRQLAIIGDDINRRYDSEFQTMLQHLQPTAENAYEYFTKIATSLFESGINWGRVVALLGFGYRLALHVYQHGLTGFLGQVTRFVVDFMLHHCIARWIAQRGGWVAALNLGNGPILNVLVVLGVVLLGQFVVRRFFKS

human Bax [1] = biological target: T3, human Bax (human, UniProt Q07812 1-192); experiment: conclusion drawn from the biotin-peptide streptavidin pull-down
T3 construct: Protein in cell lysates or cells, not purified; also called endogenous Bax; pcDNA3-Bax (human)
T3 sequence (Q07812 whole entry): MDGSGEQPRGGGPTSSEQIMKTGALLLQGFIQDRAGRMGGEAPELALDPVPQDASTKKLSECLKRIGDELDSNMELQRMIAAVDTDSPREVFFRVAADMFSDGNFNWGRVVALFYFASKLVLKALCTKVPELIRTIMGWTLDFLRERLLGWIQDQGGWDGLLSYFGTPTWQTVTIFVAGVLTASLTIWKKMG
Method: The interaction of BIP and Bax was confirmed by experiments using the system of biotin-labeled BIP and streptavidin beads. Biotin-labeled BIP (biotin-VPMLK; SEQ ID NO: 1), but not negative control peptide (biotin-IPMIK; SEQ ID NO: 5) precipitated Bax from the cell lysates when the streptavidin beads were added to the samples.
(§2) Endogenous protein: HEK293T (10^7 cells) were lysed in 200 ul of "CHAPS-based buffer" (150 mM NaCl, 10 mM Hepes, pH 7.4, 1.0% CHAPS) containing protease inhibitors (100 times dilution of Protease Inhibitors Cocktail; Sigma) according to the previously reported method (Hsu and Youle, *J. Biol. Chem.* 273:10777–10783, 1998). After pre-cleaning of 600 ul of the sample with 50 ul of Protein G-Sepharose at 4° C. for 1 hour, immunoprecipitations were performed by incubating 200 ul of lysates with 20 ul of Protein G-Sepharose preabsorbed with 2 ug of anti-Bax polyclonal (BD-Pharmingen) or anti-Ku70 monoclonal antibody (BD-Pharmingen) at 4° C. for 2 hours. In some cases, 2 ug of anti-Bax monoclonal antibody (clone 6A7, BD Pharmingen) was used to detect active form of Bax. […]

human Bax [2] = biological target: T3, human Bax; experiment: streptavidin bead pull-down from HEK293T CHAPS lysates, Western blot of Bax
Method: as §2, with “Bax. After extensive washing in the buffer, beads were boiled in 40 ul of Laemmli buffer and 20 ul of the eluted proteins were subjected to SDS-PAGE. *Co-precipitation of biotin-labeled peptides and endogenous Bax using streptavidin beads*: HEK293T cells (10^7 cells) lysed in 200 ul CHAPS-based buffer were incubated with biotin-labeled negative control (NC) peptide or VPMLK (V5; SEQ ID NO: 1) peptide for 1 hour. The concentrations of NC and V5 peptide labeled with biotin are described in the figure legends.” for “Bax.”

Molecule: COC(=O)C[C@H](NC(=O)[C@H](C)NC(=O)[C@@H](NC(=O)OCc1ccccc1)C(C)C)C(=O)CF [z-VAD-fmk] (Cbz-Val-Ala-Asp(OMe)-CH2F)
Suppression of Bax-induced apoptosis in cell culture (HEK293T cells): showed anti-apoptotic activities
Suppression of Caspase activation (Caspase): suppresses STS-induced Caspase activation

Binding of FITC peptide to cellular components (endogenous Bax): No significant binding
Molecule: CSCC[C@H](NC(=O)[C@@H]1CCCN1C(=O)[C@@H](NC(=S)Nc1ccc2c(c1)C(=O)OC21c2ccc(O)cc2Oc2cc(O)ccc21)C(C)C)C(=O)N[C@@H](CC(C)C)C(=O)N[C@@H](CCCCN)C(=O)O [FITC-labeled BIP] ({FITC}-VPMLK-OH; N-terminus and C-terminus assumed)

Molecule: IPMIK [mutant of V5 with V and L changed to I, used as negative control peptide, reference compound]
Interaction with Bax (precipitation from cell lysates) (Bax): fails to interact with Bax
Suppression of Bax-induced apoptosis in cell culture (HEK293T cells): lost its activity to suppress apoptosis; also recorded: did not suppress Bax-mediated cell death

binding result (Bak): no binding (tested: 200 uM)
B1: Biotin-labeled BIP (biotin-VPMLK; SEQ ID NO: 1) (peptide)
peptide: Biotin-VPMLK
notes: also called biotin-labeled V5 peptide (BIP)

binding result (human Bax [1]): no binding
B2: IPMIK (SEQ ID NO: 5) negative control (NC) peptide (peptide)
peptide: IPMIK
notes: also called negative control peptide; mutant peptide IPMIK

binding result (human Bax [2]): no binding (tested: 200 uM)
B3: biotin-IPMIK (SEQ ID NO: 5) negative control peptide (peptide)
peptide: Biotin-IPMIK
notes: also called biotin-labeled negative control (NC) peptide

Source: patent US7314866B2, “Ku-70-derived Bax-suppressing peptides and use thereof for the protection of damaged cells” (Bloodcenter of Wisconsin, Inc., priority 2002, dated 2008)
